How the values were obtained:
[1] = tested on: anti-glomerular basement membrane antibody-induced nephritis model; assay: In vivo efficacy study using anti-glomerular basement membrane antibody-induced nephritis model; design: species or system WKY/NCrlCrlj rats; settings: rat, 24-hour urine
Protocol: The test compound was weighed and suspended in 0.5% methylcellulose (Shin-Etsu Chemical Co., Ltd.)+99.5% Otsuka distilled water (Otsuka Pharmaceutical Factory) to prepare a test sample solution for administration. 300 μL of phosphate buffered saline (Wako, 045-29795) containing 33.3 μg/mL anti-glomerular basement membrane antibody (Chondrex, 70221) was intravenously administered into the tail vein of WKY/NCrlCrlj rats (7-week-old males). 7 days after, the test sample was administered twice a day for 7 days, and the rats were moved to a metabolism/urine collection cage from the 6th to 7th days of the starting of the administration, and the 24-hour urine was collected. The weight of the collected urine was measured. 150 μL of urine was transferred to a sample cup (650-M, BMBio ST). The albumin concentration in urine was measured using a JCA-BM6050 automatic analyzer (JEOL). The amount of albumin in urine was determined with correction for the measured urine weight. The amounts of albumin in urine in the group without administration of anti-glomerular basement membrane antibody and the group with administration of vehicle were set at 0% and 100%, respectively, and the ratio of the amount of albumin in urine in the group administered with the test compound was calculated.

[2] = target: T1, DDR1 kinase in DDR1-expressing U2OS cells (Homo sapiens, UniProt Q08345); assay: DDR1 kinase inhibitory effect in DDR1-expressing U2OS cells (PathHunter, type I collagen stimulation); assay type: cell-based; settings: type I collagen 50 μg/mL, 10% FBS, read-out: DDR-1 IC50
T1 construct: host or cells: U2OS
T1 sequence (Q08345 19-913): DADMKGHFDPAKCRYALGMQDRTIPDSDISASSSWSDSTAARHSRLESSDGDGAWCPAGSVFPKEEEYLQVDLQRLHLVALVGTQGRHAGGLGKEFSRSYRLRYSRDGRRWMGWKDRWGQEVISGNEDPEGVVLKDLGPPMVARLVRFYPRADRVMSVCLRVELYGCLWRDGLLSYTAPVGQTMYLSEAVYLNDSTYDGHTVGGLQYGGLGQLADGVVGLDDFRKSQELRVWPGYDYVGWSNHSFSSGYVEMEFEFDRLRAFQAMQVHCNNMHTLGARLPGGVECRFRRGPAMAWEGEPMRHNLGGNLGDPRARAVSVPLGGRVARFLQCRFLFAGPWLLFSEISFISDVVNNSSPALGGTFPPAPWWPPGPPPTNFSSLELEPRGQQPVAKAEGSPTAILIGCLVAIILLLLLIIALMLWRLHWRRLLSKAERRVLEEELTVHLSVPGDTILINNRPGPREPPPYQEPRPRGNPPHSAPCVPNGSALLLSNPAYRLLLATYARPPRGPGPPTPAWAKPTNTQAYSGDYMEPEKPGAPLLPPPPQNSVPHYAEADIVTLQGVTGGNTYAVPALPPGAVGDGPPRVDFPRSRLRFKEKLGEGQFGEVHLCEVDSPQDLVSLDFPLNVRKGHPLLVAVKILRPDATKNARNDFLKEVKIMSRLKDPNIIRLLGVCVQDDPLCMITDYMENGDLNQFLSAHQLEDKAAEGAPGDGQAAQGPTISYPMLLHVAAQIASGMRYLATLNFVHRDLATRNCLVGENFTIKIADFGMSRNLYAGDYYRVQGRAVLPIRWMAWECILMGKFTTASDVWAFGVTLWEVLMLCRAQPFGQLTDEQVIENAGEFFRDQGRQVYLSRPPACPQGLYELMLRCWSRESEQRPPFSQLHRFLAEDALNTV
Protocol: Test compounds in DMSO were prepared at 10 mM and diluted with DMSO to final concentrations of 1000, 100, 10, 1, and 0.1 μM. These solutions were diluted further with E-MEM medium (Fujifilm Wako Pure Chemical Industries, 051-07615) containing 10% fetal bovine serum (FBS, Gibco, 10270106) to 60,000, 6,000, 600, 60, 6, and 0.6 nM to obtain test sample solutions.
DDR1-expressing U2OS cells (DiscoverX, 93-0894C3) suspended at 2.5×10^5 cells/mL in 10% FBS+E-MEM medium were seeded in 384-well plates (DiscoverX, 92-0013) in 20 μL portions and cultured overnight at 37° C. and 5% CO2.
The next day, the test sample solutions as prepared were added at 5 μL/well to final concentrations of 10,000, 1,000, 100, 10, 1, and 0.1 nM. After incubation at 37° C. and 5% CO2 for 1 hour, type I collagen (Nitta Gelatin, 631-00771) was added at 5 μL/well to a final concentration of 50 μg/mL, and cultured overnight at 37° C. and 5% CO2.
The next day, the plate was left at room temperature for 1 hour, after which 5 μL/well of detection solution was added according to the instruction manual for the PathHunter (registered trademark) Detection Kit (DiscoverX, 93-0001). […] The test was performed in duplicate.

DDR1 protein = target: T2, DDR1 protein (Homo sapiens, UniProt Q08345); assay: Evaluation of DDR1 kinase inhibitory activity (LANCE Ultra TR-FRET); assay type: biochemical; settings: DDR1 protein 0.5 nM, ATP 100 μM, 2 hours at room temperature; read-out: DDR-1 IC50
T2 construct: purchased Carna Biosciences 08-113
T2 sequence (Q08345 19-876 isoform Q08345-2 limits assumed): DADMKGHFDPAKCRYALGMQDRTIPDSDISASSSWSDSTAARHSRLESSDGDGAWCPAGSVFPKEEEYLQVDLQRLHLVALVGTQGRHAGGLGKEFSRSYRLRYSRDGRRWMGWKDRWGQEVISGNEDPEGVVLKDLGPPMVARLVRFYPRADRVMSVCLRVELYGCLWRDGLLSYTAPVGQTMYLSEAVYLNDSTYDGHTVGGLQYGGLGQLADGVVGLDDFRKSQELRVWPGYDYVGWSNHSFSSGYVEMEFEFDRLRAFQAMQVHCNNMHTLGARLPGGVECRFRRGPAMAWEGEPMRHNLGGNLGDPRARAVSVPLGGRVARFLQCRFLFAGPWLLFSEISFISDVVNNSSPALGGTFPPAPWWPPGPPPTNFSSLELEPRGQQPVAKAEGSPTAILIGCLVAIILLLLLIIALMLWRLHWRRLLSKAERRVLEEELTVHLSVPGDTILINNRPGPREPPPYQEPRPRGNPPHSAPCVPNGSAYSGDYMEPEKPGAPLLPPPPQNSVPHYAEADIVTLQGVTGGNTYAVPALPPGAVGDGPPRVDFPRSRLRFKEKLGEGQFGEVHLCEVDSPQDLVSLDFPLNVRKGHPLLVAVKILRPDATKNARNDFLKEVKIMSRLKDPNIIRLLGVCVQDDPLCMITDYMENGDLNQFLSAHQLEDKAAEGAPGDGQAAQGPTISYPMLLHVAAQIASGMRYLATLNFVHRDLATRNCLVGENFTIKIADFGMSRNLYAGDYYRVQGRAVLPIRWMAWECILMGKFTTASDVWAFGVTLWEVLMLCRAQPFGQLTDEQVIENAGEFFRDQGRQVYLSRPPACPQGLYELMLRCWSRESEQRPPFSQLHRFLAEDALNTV
Protocol: The test was performed in duplicate.

[3] = dose 10 mg/kg twice a day for 7 days

Row | Compound | IC50 [2] [nM] | IC50 (DDR1 protein) [nM] | Urinary albumin (% of vehicle-administered group) [1, 3] | Urinary albumin (% of vehicle-administered group) ([1]; dose 5 mg/kg twice a day for 7 days) | Urinary albumin (% of vehicle-administered group) ([1]; dose 30 mg/kg twice a day for 7 days) | Urinary albumin (% of vehicle-administered group) ([1]; dose 50 mg/kg twice a day for 7 days)
1 | Nc1cnc(/C(F)=C/c2cc(C(=O)N[C@H]3C[C@H](OC(F)(F)F)C[C@@H]3O)ccc2OC(F)F)cn1 [Example 10, 3-[(1Z)-2-(5-Aminopyrazin-2-yl)-2-fluoroethenyl]-4-(difluoromethoxy)-N-[(1S,2S,4S)-2-hydroxy-4-(trifluoromethoxy)cyclopentyl]benzamide] | 72 | 1.2 | 69 % of vehicle-administered grou | – | – | –
2 | NC(=O)c1ncc2cc(-c3cc(C(=O)N[C@H]4CCCC[C@@H]4O)ccc3C(F)(F)F)ccn12 [Example 14, 7-(5-{[(1S,2S)-2-Hydroxycyclohexyl]carbamoyl}-2-(trifluoromethyl)phenyl)imidazo[1,5-a]pyridine-3-carboxamide] | 83 | 2.5 | – | – | – | 76 % of vehicle-administered grou

Stronger by IC50 [2], values ahead:

Row | IC50 [2] [nM] | IC50 (DDR1 protein) [nM] | Compound | Urinary albumin (% of vehicle-administered group) [1, 3] | Urinary albumin (% of vehicle-administered group) ([1]; dose 5 mg/kg twice a day for 7 days) | Urinary albumin (% of vehicle-administered group) ([1]; dose 30 mg/kg twice a day for 7 days) | Urinary albumin (% of vehicle-administered group) ([1]; dose 50 mg/kg twice a day for 7 days)
3 | 1.8 | 0.25 | COc1nc(N)ncc1C#Cc1cc(C(=O)N[C@H]2C[C@H](OC(F)(F)F)C[C@@H]2O)ccc1OC(F)F [Example 5, 3-[2-(2-Amino-4-methoxypyrimidin-5-yl)ethynyl]-4-(difluoromethoxy)-N-[(1S,2S,4S)-2-hydroxy-4-(trifluoromethoxy)cyclopentyl]benzamide] | 57 % of vehicle-administered grou | – | – | –
4 | 58 | 0.39 | Cn1cc(C#Cc2cc(C(=O)N[C@H]3C[C@H](OC(F)(F)F)C[C@@H]3O)ccc2OC(F)F)cn1 [Example 6, 4-(Difluoromethoxy)-N-[(1S,2S,4S)-2-hydroxy-4-(trifluoromethoxy)cyclopentyl]-3-[2-(1-methyl-1H-pyrazol-4-yl)ethynyl]benzamide] | – | 72 % of vehicle-administered grou | – | –
5 | 50 | 4.4 | Nc1cnc(C#Cc2cc(C(=O)N[C@H](CO)CCOC(F)(F)F)ccc2OC(F)F)cn1 [Example 7, 3-[2-(5-Aminopyrazin-2-yl)ethynyl]-4-(difluoromethoxy)-N-[(2S)-1-hydroxy-4-(trifluoromethoxy)butan-2-yl]benzamide] | – | – | 69 % of vehicle-administered grou | –
